The text below walks through data of ChEMBL document CHEMBL1201862, “PubChem BioAssay data set” (2004).

Among the test systems are ACHN; BT-549; COLO 205; HCT-116; HL-60; HT-29; KM12; MCF7; MDA-MB-435; MDA-N; Malme-3M; NCI-H522; NCI/ADR-RES; OVCAR-5; RPMI-8226; SK-MEL-28; T47D; UACC-257; UO-31; KM-20L2.
Test in all cases: growth of human tumour cells (NCI), 48 h

SMILES strings stand for the structures.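 96-well plates; 48 h exposure; 5 concentrations. Endpoints by linear interpolation between flanking doses. Not reached: highest tested concentration assigned. Here, GI50 denotes the concentration required for 50% inhibition of growth.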 Calls of active or inactive are those of the source. Cut-off read from the data, not from the text of the source: active = GI50 up to about 1.1 µM and inactive = higher.

On to `Cc1cc(OCc2nnc3n2N=C(c2cc(F)c(Cl)cc2Cl)/C(=C/c2ccc(-c4ccc(Cl)cc4)o2)S3)ccc1Cl`, for which the GI50 in the assay with ACHN was > 50 µM (inactive); with BT-549, > 50 µM (inactive); in the assay on COLO 205, 10.4 µM (inactive); in the assay on HCT-116 it was 48.2 µM (inactive); in the assay on HL-60, > 50 µM (inactive); with HT-29 it was 21.3 µM (inactive). Also, the GI50 in the assay with KM12 was 41.5 µM (inactive); with MCF7, 20.5 µM (inactive); in the assay on MDA-MB-435, 19.3 µM (inactive); in the assay with MDA-N it was 21.5 µM (inactive); in the assay with Malme-3M, 3.9 µM (inactive); in the assay with NCI-H522 it was 28.8 µM (inactive). Also, the GI50 in the assay with NCI/ADR-RES was 12.1 µM (inactive); in the assay on OVCAR-5, > 50 µM (inactive); in the assay with RPMI-8226, 14.1 µM (inactive); in the assay with SK-MEL-28, 24.5 µM (inactive); in the assay with T47D it was 7.93 µM (inactive); in the assay on UACC-257, > 50 µM (inactive). Also, in the assay with UO-31, the GI50 was 48.5 µM (inactive).

On to `COC(=O)c1c(C)nc(C)c(N=O)c1-c1ccccc1C(F)(F)F`, for which the GI50 with ACHN is 32.9 µM (inactive); in the assay with BT-549, 18.5 µM (inactive); in the assay on COLO 205, 31.9 µM (inactive); in the assay on HCT-116, 16.4 µM (inactive); in the assay with HL-60, 8 µM (inactive); in the assay with HT-29, 15.7 µM (inactive). Moreover, the GI50 is 19.1 µM (inactive) in the assay on KM12; 20.2 µM (inactive) in the assay with MCF7; 22.3 µM (inactive) in the assay on MDA-MB-435; 19.7 µM (inactive) in the assay on MDA-N; 15.8 µM (inactive) in the assay with Malme-3M; 4.97 µM (inactive) in the assay on NCI-H522. Besides, the GI50 with NCI/ADR-RES is 20.6 µM (inactive); in the assay on OVCAR-5, 21 µM (inactive); with RPMI-8226 it was 73.8 µM (inactive); with SK-MEL-28, 14.9 µM (inactive); in the assay with T47D it was 17.3 µM (inactive); with UACC-257, 14 µM (inactive). In addition, in the assay on UO-31, the GI50 was 14.4 µM (inactive).

Consider `COc1ccc2c(C(=O)c3cn(CCN4CCOCC4)c4ccccc34)cccc2c1`, for which the GI50 in the assay on ACHN is > 96.4 µM (inactive); in the assay with BT-549, > 95.5 µM (inactive); in the assay with COLO 205, 58.9 µM (inactive); in the assay with HCT-116, 27.2 µM (inactive); in the assay on HL-60, 18.3 µM (inactive); with HT-29 it was 53.6 µM (inactive). For the same compound, the GI50 is 3.95 µM (inactive) with KM12; 5.01 µM (inactive) with MCF7; 8.26 µM (inactive) in the assay with MDA-MB-435; 37.8 µM (inactive) with MDA-N; 15.8 µM (inactive) in the assay with Malme-3M; 6.65 µM (inactive) with NCI-H522. The GI50 with NCI/ADR-RES is > 34.4 µM (inactive); in the assay on OVCAR-5, > 100 µM (inactive); with RPMI-8226, 21.2 µM (inactive); in the assay on SK-MEL-28, > 62.4 µM (inactive); in the assay with T47D it was 38 µM (inactive); in the assay with UACC-257 it was 75.9 µM (inactive). In addition, the GI50 in the assay on UO-31 was > 32 µM (inactive).

With `COc1ccc(/C=c2/sc3n(c2=O)NC2(CCCCC2)NN=3)cc1`, the GI50 in the assay on COLO 205, in the assay with HCT-116, in the assay on HT-29, in the assay with KM-20L2, with KM12 and with Malme-3M was > 100 µM (inactive) each time. Moreover, the GI50 with NCI-H522, in the assay on OVCAR-5, in the assay with SK-MEL-28 and in the assay with UO-31 was > 100 µM (inactive) each time.

Regarding `CCOC(=O)c1c(-c2ccccc2)[nH]c2ccc(Cl)cc2c1=O`, the GI50 was 27.6 µM (inactive) in the assay with ACHN; 30.8 µM (inactive) in the assay on BT-549; 47.5 µM (inactive) with COLO 205; 27.2 µM (inactive) in the assay with HCT-116; 28.2 µM (inactive) with HL-60; 27.9 µM (inactive) with HT-29. In addition, the GI50 was 34.8 µM (inactive) in the assay on KM12; 31.8 µM (inactive) in the assay on MCF7; 34.8 µM (inactive) in the assay on MDA-MB-435; 37.7 µM (inactive) in the assay on MDA-N; 61.8 µM (inactive) with Malme-3M; 28 µM (inactive) in the assay with NCI-H522. The GI50 with NCI/ADR-RES was 32.2 µM (inactive); in the assay on OVCAR-5, > 100 µM (inactive); with RPMI-8226, 36.9 µM (inactive); with SK-MEL-28, 69.7 µM (inactive); in the assay on T47D, 23.7 µM (inactive); with UACC-257 it was 36 µM (inactive). In the assay on UO-31, the GI50 is 29.4 µM (inactive).

For the compound `C=C1C(=O)O[C@H]2[C@H]3O[C@@H](C[C@@H]12)[C@@]1(C)CC[C@H](O1)C(C)=CCC[C@H]3C`, the GI50 in the assay with ACHN was 1.55 µM (inactive); with BT-549 it was 0.581 µM (active); with COLO 205 it was 1.81 µM (inactive); in the assay on HCT-116 it was 1.45 µM (inactive); with HL-60, 0.278 µM (active); with HT-29, 1.34 µM (inactive). In addition, the GI50 is 1.8 µM (inactive) in the assay on KM12; 1.43 µM (inactive) in the assay on MCF7; 1.46 µM (inactive) with MDA-MB-435; 1.53 µM (inactive) with MDA-N; 1.75 µM (inactive) with Malme-3M; 1.77 µM (inactive) with NCI-H522. Moreover, the GI50 was 1.72 µM (inactive) with NCI/ADR-RES; 3.09 µM (inactive) in the assay with OVCAR-5; 0.513 µM (active) in the assay with RPMI-8226; 1.82 µM (inactive) in the assay with SK-MEL-28; 2.11 µM (inactive) in the assay with T47D; 1.76 µM (inactive) in the assay on UACC-257. Also, the GI50 in the assay on UO-31 is 1.46 µM (inactive).

As for `CC(C)(C(=O)NN)c1ccccc1`, the GI50 in the assay on ACHN, in the assay on BT-549, with COLO 205, with HCT-116, in the assay with HL-60 and in the assay with HT-29 was > 100 µM (inactive) in each case. For the same compound, the GI50 with KM12 was 42.3 µM (inactive); in the assay on MCF7, > 100 µM (inactive); with MDA-MB-435 it was 86.5 µM (inactive); with MDA-N, 42.4 µM (inactive); in the assay on Malme-3M, > 100 µM (inactive); with NCI-H522, 56.2 µM (inactive). For the same compound, the GI50 in the assay on NCI/ADR-RES was > 100 µM (inactive); in the assay on OVCAR-5, > 100 µM (inactive); with RPMI-8226 it was 84.1 µM (inactive); with SK-MEL-28, > 100 µM (inactive); with T47D it was > 100 µM (inactive); with UACC-257 it was > 100 µM (inactive). For the same compound, the GI50 in the assay on UO-31 is 76.6 µM (inactive).

With `N=C(N)NS(=O)(=O)c1ccc(Nc2c3ccccc3nc3c(C(=O)NNCCO)cccc23)cc1`, the GI50 is 0.565 µM (active) in the assay on ACHN; 0.121 µM (active) with BT-549; 0.183 µM (active) with COLO 205; 0.156 µM (active) with HCT-116; 0.227 µM (active) with HL-60; 0.352 µM (active) with HT-29. The GI50 in the assay with KM12 was 0.141 µM (active); in the assay on MCF7, 0.109 µM (active); in the assay with MDA-MB-435, 0.0585 µM (active); with MDA-N it was 0.136 µM (active); in the assay on Malme-3M, 0.14 µM (active); in the assay on NCI-H522, 0.127 µM (active). Besides, the GI50 in the assay with NCI/ADR-RES is > 1 µM (active); in the assay on OVCAR-5 it was 0.499 µM (active); in the assay with RPMI-8226, 0.137 µM (active); with SK-MEL-28, 0.252 µM (active); with T47D, 0.12 µM (active); in the assay on UACC-257, 0.22 µM (active). Further, the GI50 in the assay on UO-31 was 0.416 µM (active).

Take `COC(=O)/C(C#N)=C/c1cc(C(C)(C)C)c(O)c(C(C)(C)C)c1`: the GI50 in the assay with ACHN was 2.77 µM (inactive); with BT-549, 2.77 µM (inactive); in the assay with COLO 205, 1.44 µM (inactive); in the assay on HCT-116, 2.66 µM (inactive); in the assay on HL-60, 1.88 µM (inactive); with HT-29, 2.82 µM (inactive). Besides, the GI50 with KM12 was 2.62 µM (inactive); in the assay with MCF7, 2.66 µM (inactive); in the assay on MDA-MB-435, 3.21 µM (inactive); in the assay on MDA-N it was 2.92 µM (inactive); in the assay on Malme-3M, 5.55 µM (inactive); in the assay on NCI-H522, 0.984 µM (active). Moreover, the GI50 in the assay with NCI/ADR-RES was 1.11 µM (active); with OVCAR-5, 2.54 µM (inactive); in the assay with RPMI-8226, 0.401 µM (active); in the assay with SK-MEL-28, 2.62 µM (inactive); in the assay on T47D it was 0.83 µM (active); in the assay with UACC-257, 1.82 µM (inactive). Further, the GI50 in the assay on UO-31 is 2.17 µM (inactive).

On to `CN(C)S(=O)(=O)c1ccc(Nc2ccc(O)c3c2C(=O)c2c([N+](=O)[O-])ccc(O)c2C3=O)cc1`, for which the GI50 with ACHN is 55 µM (inactive); in the assay with BT-549, > 100 µM (inactive); in the assay on COLO 205, 65.8 µM (inactive); with HCT-116 it was 72.9 µM (inactive); in the assay with HL-60 it was > 100 µM (inactive); in the assay on HT-29, > 100 µM (inactive). Further, the GI50 with KM12 was > 100 µM (inactive); in the assay on MCF7, > 100 µM (inactive); with MDA-MB-435, > 100 µM (inactive); in the assay with MDA-N, > 100 µM (inactive); with Malme-3M it was 57.4 µM (inactive); in the assay on NCI-H522, 52.8 µM (inactive). Further, the GI50 in the assay with NCI/ADR-RES, in the assay on OVCAR-5, with RPMI-8226, in the assay on SK-MEL-28, in the assay with T47D and in the assay on UACC-257 was > 100 µM (inactive) throughout. Further, the GI50 with UO-31 was > 100 µM (inactive).

On to `Cc1cc(S(=O)(=O)Nc2nc(N)nc(N3N=CCC3C)n2)c(SCC(=O)O)cc1Cl` (stereo not given), for which the GI50 in the assay on ACHN, with BT-549, with COLO 205, in the assay with HCT-116, in the assay with HL-60 and in the assay with HT-29 was > 10 µM (inactive) each time. For the same compound, the GI50 with KM12, in the assay on MCF7, in the assay on MDA-MB-435, in the assay with MDA-N, in the assay with Malme-3M and with NCI-H522 was > 10 µM (inactive) in each case. Further, the GI50 with NCI/ADR-RES, with OVCAR-5, in the assay on RPMI-8226, in the assay on SK-MEL-28, in the assay with T47D and in the assay on UACC-257 was > 10 µM (inactive) in each case. Moreover, the GI50 in the assay with UO-31 was 0.001 µM (active).
